From US20250186436A1 (4E Therapeutics, Inc., priority 2021, published 2025) come the findings set out here.

Data set [1] can be described thus: Liver microsome stability. Conditions: mouse, liver microsomes. On the technique in general: Liver microsomes are a subcellular fraction often used to study metabolism.
The subject of data set [2] is P-gp (human MDR1, ABCB1). Put plainly: MDCK-MDR1 permeability (blood-brain barrier permeability). Conditions: dog.
Data set [3] deals with T1, recombinant full-length human kinase MNK1 (Homo sapiens, UniProt Q9BUB5).
T1 construct: the recombinant full-length human kinase MNK1; made in house; host or cells: insect cells
The data set can be described thus: MNK1 radiometric kinase activity assay. Type of data set: biochemical.

Data set [4] deals with IL-6 evoked grimace in ICR mice. The data set can be described thus: IL-6 evoked grimace test. Type of data set: in vivo. Conditions: PO 1 hr prior to IL-6 (4ET-03-053: 10 mg/kg). The method, then: Male and female Institute for Cancer Research (ICR) mice were used in these experiments. Mice were bred in house at University of Texas at Dallas and used at between 12 and 24 weeks of age. Mice were habituated to plexiglass boxes of approximately 4×6 inches in size with openable tops. Habituation took place over 2 days with animals exposed to the boxes for at least 30 min. A blinded observer scored baseline grimacing using the method previously described by Mogil and colleagues (Langford D J, et al. “Coding of facial expressions of pain in the laboratory mouse” Nat Methods 7:447-449 (2010)). On test day, mice were given test compounds 1 hr prior to injection of interleukin 6 (human recombinant IL-6, R&D Systems) which was given at a dose of 0.1 ng in saline via an intraplantar injection as described previously (Moy J K, et al. “The MNK-eIF4E Signaling Axis Contributes to Injury-Induced Nociceptive Plasticity and the Development of Chronic Pain” J Neurosci. 37:7481-7499 (2017)). Test compounds were given orally (PO) via a flexible oral gavage canula built for mice. 4ET-03-053 is efficacious in the IL-6 evoked grimace test in mice (PO; 10 mg/kg).
Effect sizes were calculated per mouse by subtracting the baseline grimace score from the sum of the grimace scores for 1 and 3 hr time points.

Data set [5] concerns eIF4E phosphorylation at Serine 209 in HEK 293 cells. Put plainly: eIF4E phosphorylation in HEK 293 cells (phospho-specific antibody, fluorescent plate reader).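 Also: Well-level p-eIF4E immunofluorescence normalized to DAPI signal, expressed as percent eIF4E phosphorylation, with IC50 derived from concentration-response curves.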 Type of data set: cell-based. Conditions: Homo sapiens, HEK293; eIF4E phosphorylation at Serine 209, 2 hours exposure; read-out: HEK 293 cell.
Data set [6] concerns the target T2, recombinant full length human kinase MNK2 (Homo sapiens, UniProt Q9HBH9).
T2 construct: the recombinant full length human kinase MNK2; made in house; host or cells: insect cells
Put plainly: MNK2 radiometric kinase activity assay. Type of data set: biochemical.

In data set [7] the test system is P-gp (human MDR1, ABCB1). Put plainly: in vitro. Conditions: dog, MDCK-MDR1.
The next data set in a line: in vitro. Conditions: mouse, microsomes.
In data set [8] the test system is eIF4E phosphorylation in hDRGs. The data set can be described thus: p-eIF4E immunofluorescence in cultured human dorsal root ganglion cells (hDRGs). Type of data set: cell-based. Conditions: OSM 10 and 50 ng/ml, 30 min. The method, then:
For all human DRG experiments, DRGs were recovered from organ donors at the Southwest Transplant Alliance under an IRB approved protocol at University of Texas at Dallas. DRGs were recovered within 3 hrs of cross clamp. DRGs were recovered and taken back to the University of Texas lab where they were cultured using the protocol described previously. Cultures were grown on glass coverslips for microscopy. Coverslips were coated with poly-D-lysine and laminin to improve neuronal adherence to the coverslips. Cultures of human DRG neurons were grown for 4-7 days prior to treatment with OSM. OSM treatment was done in culture media for a period of 30 min. Cells were stained with antibodies using the same protocol as described above for HEK293 cells. Imaging was done on an Olympus FV1200 microscope and image analysis was done with CellSens software. Statistical analysis was done with Graphpad Prism V8.
Human DRG recovery and other experimental protocols were the same as described herein.

The mark [9] stands for this setting: radiometric activity assay, read-out: MNK1.
The mark [10] stands for this setting: radiometric activity assay, read-out: MNK2.

Where two headings read alike, the source gives them in different places.

T2 sequence (Q9HBH9 whole entry): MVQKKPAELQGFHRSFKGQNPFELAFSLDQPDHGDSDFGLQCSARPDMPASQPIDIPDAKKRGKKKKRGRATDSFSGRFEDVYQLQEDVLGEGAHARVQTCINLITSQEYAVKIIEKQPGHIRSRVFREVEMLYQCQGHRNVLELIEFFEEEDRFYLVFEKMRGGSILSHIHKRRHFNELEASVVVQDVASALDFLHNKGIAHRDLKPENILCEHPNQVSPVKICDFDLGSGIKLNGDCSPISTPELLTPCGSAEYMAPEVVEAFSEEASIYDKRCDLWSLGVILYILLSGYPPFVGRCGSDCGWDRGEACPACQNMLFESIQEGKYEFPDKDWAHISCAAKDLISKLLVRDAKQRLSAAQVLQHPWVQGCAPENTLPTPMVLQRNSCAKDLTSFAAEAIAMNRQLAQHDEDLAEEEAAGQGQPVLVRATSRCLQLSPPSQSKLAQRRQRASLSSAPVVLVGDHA
T1 sequence (Q9BUB5 whole entry): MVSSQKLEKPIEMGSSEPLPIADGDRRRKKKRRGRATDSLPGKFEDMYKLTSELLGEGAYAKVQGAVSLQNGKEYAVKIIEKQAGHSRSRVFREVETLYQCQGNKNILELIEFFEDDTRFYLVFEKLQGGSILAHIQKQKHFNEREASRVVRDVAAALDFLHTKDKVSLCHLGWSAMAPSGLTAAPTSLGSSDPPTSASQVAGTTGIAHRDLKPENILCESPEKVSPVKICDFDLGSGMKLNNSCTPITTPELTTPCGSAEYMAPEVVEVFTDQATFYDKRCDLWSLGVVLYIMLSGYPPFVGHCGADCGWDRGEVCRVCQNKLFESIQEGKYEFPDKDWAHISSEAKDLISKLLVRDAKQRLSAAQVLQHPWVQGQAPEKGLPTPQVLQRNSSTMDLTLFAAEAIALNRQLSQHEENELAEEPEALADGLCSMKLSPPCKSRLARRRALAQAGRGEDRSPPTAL

For orientation: half-life means the time in which the quantity being followed falls by half. By Papp A→B is commonly meant the apparent permeability from the apical to the basolateral side of a cell layer. Read a high Papp A→B as ready permeation. One may read the Papp B→A as the apparent permeability from the basolateral to the apical side of a cell layer. As a reminder, the efflux ratio is a quotient of directional permeabilities that is used to spot active efflux. On to `Cc1cc(Nc2cc(N)ncn2)c(=O)n2c1C(=O)NC21CCCC2(CC2)CC1` (racemic) [rac-4ET-01-027, 6″-((6-Aminopyrimidin-4-yl)amino)-8″-methyl-2″H-dispiro[cyclopropane-1,1′-cycloheptane-4′,3″-imidazo[1,5-a]pyridine]-1″,5″-dione], for which, in data set [1], the half-life was found to be 1.11 h. Besides, in the data set with P-gp (human MDR1, ABCB1) [2], the Papp A→B at 5 uM was determined as 52.9 ×10⁻⁶ cm/s, the Papp B→A at 5 uM was 62.1 ×10⁻⁶ cm/s and the efflux ratio at 5 uM was determined as 1.2. Also, in data set [3] (setting [9]), the IC50 stood at 35.2 nM. Further, the “efficacy in the IL-6 evoked grimace test” value in [4] is “efficacious”. In addition, the IC50 in [5] stood at 12.6 nM. Also, the IC50 in data set [6] (setting [10]) stood at 1.6 nM.

In turn, `Cc1cc(Nc2cc(N)ncn2)c(=O)n2c1C(=O)NC21C=CC2(CC2)CC1` (stereo not drawn) [4ET-01-051, 6″-((6-Aminopyrimidin-4-yl)amino)-8″-methyl-2″H-dispiro[cyclopropane-1,1′-cyclohexane-4′,3″-imidazo[1,5-a]pyridin]-2′-ene-1″,5″-dione] displayed a half-life in [1] of 13.9 h. In the data set with P-gp (human MDR1, ABCB1) [2], the apical-to-basolateral permeability (Papp A→B) at 5 uM is 22.7 ×10⁻⁶ cm/s, the basolateral-to-apical permeability (Papp B→A) at 5 uM stood at 52.4 ×10⁻⁶ cm/s and the efflux ratio at 5 uM turned out to be 2.3. In addition, the IC50 in data set [3] (setting [9]) was determined as 58.6 nM. The “efficacy in the IL-6 evoked grimace test” value in data set [4] was “efficacious”. Besides, the IC50 in data set [5] is 7.3 nM. The IC50 in [6] (setting [10]) came out at 3.1 nM.

With `Cc1cc(Nc2cc(NC(=O)C3CC3)ncn2)c(=O)n2c1C(=O)NC21CCC2(CC1)CN2` (stereo not drawn) [4ET-03-040, N-(6-((8″-methyl-1″,5″-dioxo-1″,5″-dihydro-2″H-dispiro[aziridine-2,1′-cyclohexane-4′,3″-imidazo[1,5-a]pyridin]-6″-yl)amino)pyrimidin-4-yl)cyclopropanecarboxamide], the apical-to-basolateral permeability (Papp A→B) at 5 uM in the data set on P-gp (human MDR1, ABCB1) [7] was 0.6 ×10⁻⁶ cm/s. In the data set with P-gp (human MDR1, ABCB1) [7], this molecule gave a Papp B→A at 5 uM of 1.6 ×10⁻⁶ cm/s. Besides, the efflux ratio at 5 uM with P-gp (human MDR1, ABCB1) [2] was 2.4. The IC50 in data set [3] is 38.6 nM; in data set [5] it was 27.4 nM; in data set [6], 2 nM. For the same molecule, the half-life in “in vitro” worked out at 1.28 h.

B1: oncostatin M (protein, UniProt P13725 26-221, looked up)
Oncostatin-M: AAIGSCSKEYRVLLGQLQKQTDLMQDTSRLLDPYIRIQGLDVPKLREHCRERPGAFPSEETLRGLGRRGFLQTLNATLGCVLHRLADLEQRLPKAQDLERSGLNIEDLEKLQMARPNILGLRNNIYCMAQLLDNSDTAEPTKAGRGASQPPTPTPASDAFQRKLEGCRFLHGYHRFMHSVGRVFSKWGESPNRSRR
On to B1, for which, in [8], the “phosphorylation of eIF4E in hDRGs (stimulus)” value is given as “increased phosphorylation of eIF4E”.
